From US20050191267A1, “Anti-photoaging cosmeceutical composition” (priority 2004, published 2005)

Test system: inflamed ears of experimental mice
Experiment: Anti-inflammatory activity on ethyl phenyl propyolate-inflamed mice ears
Format: in vivo
Description: The test for anti-inflammatory activity can be done on lab mice by applying ethyl phenyl propyolate on mice ears at a concentration of 1 mg per ear to induce inflammation. The fullest swollen ear can be observed 1 hour after the application, then the tested extracts and reference compound, dexamethasone, are applied onto the inflamed ears at a dose of 0.05 mg/ear. The reduction in the thickness of the ears in comparison with the control group indicates anti-inflammatory activity, as shown in Table 1.

C[C@@H]1C[C@H]2[C@@H]3CCC4=CC(=O)C=C[C@]4(C)[C@@]3(F)[C@@H](O)C[C@]2(C)[C@@]1(O)C(=O)CO [Anti-inflammatory, Dexamethasone]
Percentage reduction of inflamed ears (0 min, ethyl phenyl propyolate 1 mg per ear): 0%
Percentage reduction of inflamed ears (60 min after inducer (fullest swelling, time of application), 0.05 mg/ear): 54.253%
Percentage reduction of inflamed ears (90 min, 0.05 mg/ear topical): 42.533%
Percentage reduction of inflamed ears (120 min, 0.05 mg/ear topical): 38.752%
Percentage reduction of inflamed ears (240 min, 0.05 mg/ear topical): 25.142%
Percentage reduction of inflamed ears (360 min, 0.05 mg/ear topical): 13.422%
Percentage reduction of inflamed ears (480 min, 0.05 mg/ear topical): 11.531%
